Reference: PubChem BioAssay (NCI)
Values joined by “and” are separate entries in the source; they are usually repeats but may differ in a detail not shown here. Equal entries are not always repeated.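 These data come from cells grown in 96-well plates and exposed to compound for 48 hours at five concentrations. GI50: concentration for 50% inhibition of growth. TGI marks complete inhibition of growth.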

Key:
Assay in all cases: NCI anticancer screen, dose series, 48 h
OVCAR-3 ovarian = system: OVCAR-3 ovarian
NCI-H460 lung = system: NCI-H460 lung
TK-10 renal = system: TK-10 renal
HCT-15 colon = system: HCT-15 colon
HS 578T breast = system: HS 578T breast
OVCAR-4 ovarian = system: OVCAR-4 ovarian
HOP-62 NSCLC = system: HOP-62 NSCLC
NCI-H23 lung = system: NCI-H23 lung
NCI-H522 lung = system: NCI-H522 lung
SK-OV-3 ovarian = system: SK-OV-3 ovarian

| SMILES | GI50 (OVCAR-3 ovarian) | TGI (OVCAR-3 ovarian) [µM] | GI50 (NCI-H460 lung) [µM] | TGI (NCI-H460 lung) [µM] | GI50 (TK-10 renal) | TGI (TK-10 renal) [µM] | GI50 (HCT-15 colon) [µM] | TGI (HCT-15 colon) [µM] | GI50 (HS 578T breast) [µM] | TGI (HS 578T breast) [µM] | GI50 (OVCAR-4 ovarian) [µM] | TGI (OVCAR-4 ovarian) [µM] | GI50 (HOP-62 NSCLC) | TGI (HOP-62 NSCLC) [µM] | GI50 (NCI-H23 lung) [µM] | TGI (NCI-H23 lung) [µM] | GI50 (NCI-H522 lung) [µM] | TGI (NCI-H522 lung) [µM] | TGI (SK-OV-3 ovarian) [µM] | GI50 (SK-OV-3 ovarian) |
| --- | --- | --- | --- | --- | --- | --- | --- | --- | --- | --- | --- | --- | --- | --- | --- | --- | --- | --- | --- | --- |
| O=C(Nc1ccc(F)cc1)Nc1ccccc1CNc1nc(Nc2ccc(OCCN3CCCC3)cc2)ncc1Cl | 1.01 µM | 2.01 | 1.15 | 2.7 | 1.77 µM | 6.8 | 1.58 | 6.06 | 0.99 | 2.58 | 1.11 | 2.93 | 1.39 µM | 4.21 | 5.63 | 13.1 | 2.26 | 13.4 | – | – |
| CC1(Cl)CC2OC3(Br)C=CC(C)(O)C2(CC1Br)C3(C)C (stereo unspecified) | – | > 100 | – | > 100 | – | > 100 | – | > 100 | – | – | – | > 100 | – | > 100 | – | > 100 | – | – | > 100 | – |
| C/C(=N\NC(N)=S)c1cc(C)c(C)cc1C | – | 60.3 | – | > 100 | – | > 100 | – | > 100 | – | – | – | > 100 | – | > 100 | – | > 100 | – | – | > 100 | – |
| O=C(C=Nc1ccccc1C(=O)[O-])c1cccs1.O=C(C=Nc1ccccc1C(=O)[O-])c1cccs1.[Co+2] | – | 95.1 | – | > 100 | – | > 100 | – | > 100 | – | – | – | – | – | > 100 | – | > 100 | – | > 100 | > 100 | – |
| CCN1/C(=C/C=C/c2n(-c3ccccc3)c3ccc(-c4nc5ccccc5s4)cc3[n+]2CC)N(c2ccccc2)c2ccc(-c3nc4ccccc4s3)cc21 | 1.01 µM | 10.3 | 0.527 | > 50 | 1.94 µM | > 50 | 1 | > 50 | 0.284 | > 50 | 0.765 | > 50 | – | – | 0.533 | 5.08 | 0.585 | 3.41 | – | – |
| CC(=O)O[C@@]12CO[C@@H]1C[C@H](O)[C@@]1(C)C(=O)[C@H](O)C3=C(C)[C@@H](OC(=O)[C@H](O)[C@@H](NC(=O)OC(C)(C)C)c4ccccc4)C[C@@](O)([C@@H](OC(=O)c4ccccc4)[C@H]21)C3(C)C | 0.0296 µM and 0.00642 µM | 0.0244 | 0.000351 | 41 | 0.0327 µM and 0.00788 µM | – | 0.0656 | 17.1 | – | – | – | 76.1 | 0.0844 µM and 0.0428 µM | 3.78 | 0.0192 | > 67.2 | 0.00086 | – | 0.0491 | 0.0521 µM and < 0.0174 µM |
| CCOc1ccccc1NC(=O)c1cc2ccccc2cc1O | 3.16 µM | 8.98 | 2.94 | 7.03 | 4.08 µM | 10.3 | 3.27 | 15.6 | 2.85 | 7.14 | 3.69 | 19.6 | 3.32 µM | 16.7 | 2.59 | 9.45 | 2.22 | 6.9 | – | – |
| C/C=C/C1=C(Cl)C(=O)[C@@H](Cl)[C@@]1(O)C(=O)OC | – | 6.94 | – | 15.2 | – | 9.14 | – | 4.43 | – | – | – | 5.59 | – | 2.42 | – | 10.1 | – | 2.52 | 30.6 | – |
| CC[O-].CC[O-].O=C([CH-]C(=O)c1cccnc1)c1ccccc1.O=C([CH-]C(=O)c1cccnc1)c1ccccc1.[Ti+4] | > 100 µM | > 100 | 31.2 | > 100 | – | – | 18.3 | > 100 | – | – | > 100 | > 100 | 48.4 µM | > 100 | – | – | 26.1 | > 100 | > 100 | 91.8 µM |
| O=c1cc(-c2ccccc2)oc2cc(O)c(O)c(O)c12 | 16 µM | 41.7 | 7.99 | > 100 | 28 µM | 81.2 | 8.25 | 58.8 | – | – | 47.1 | > 100 | 9.49 µM | 31.2 | 12.7 | 39.7 | 13.3 | > 100 | > 100 | 59.6 µM |
| [Cl][Sn]([Cl])([c]1ccccc1)[c]1ccccc1 | 13.4 µM | 26.2 | – | – | 15.7 µM | 29.7 | 10.3 | 23.2 | – | – | 16.8 | 31 | – | – | 10.4 | 24 | – | – | 31.6 | 17.4 µM |
| Nc1nc2sc3ccccc3c(=O)n2n1 | – | > 100 | – | > 100 | – | > 100 | – | > 100 | – | – | – | > 100 | – | > 100 | – | > 100 | – | – | > 100 | – |
| CCOC(=O)c1sc2ncn(Cc3cccc(Br)c3)c(=O)c2c1C | 39.7 µM | > 100 | 77.3 | > 100 | – | – | 62.4 | > 100 | 38.6 | > 100 | 30.9 | 81.3 | 19.4 µM | 65.4 | 66.7 | > 100 | 9.7 | 65.8 | > 100 | > 100 µM |
| CN(C)CCN(C)CC1COC(C)(C)O1 (stereo unspecified) | – | > 100 | – | > 100 | – | > 100 | – | – | – | – | – | > 100 | – | > 100 | – | > 100 | – | > 100 | > 100 | – |
| COC(c1cccc(C(O)(C(F)(F)F)C(F)(F)F)c1)(C(F)(F)F)C(F)(F)F | – | 38 | – | 41.5 | – | 36.6 | – | 53.9 | – | – | – | 30.4 | – | 33.7 | – | 35.3 | – | 26.5 | 34.4 | – |
| CN(CCCCCl)P(=O)(OCc1ccc([N+](=O)[O-])o1)OCC1OC(n2ccc(N)nc2=O)C(F)(F)C1O (stereo unspecified) | 3.15 µM | > 45.5 | 0.3 | – | – | > 82.7 | > 73.5 | > 100 | > 68 | > 100 | – | – | 0.494 µM | > 100 | 0.0742 | 1.53 | > 39 | > 100 | > 100 | 2.22 µM |
| CC(C)Nc1ccc(Nc2ccccc2)cc1 | 9.49 µM | 21.8 | 18.9 | > 100 | 23.1 µM | 57.4 | 21.5 | 77 | 38.3 | > 100 | – | – | 23.6 µM | 66.9 | 14.2 | 65.3 | 13.7 | 28.8 | > 100 | 39.9 µM |
